From patent US8709406B2, “Prevention and treatment of oxidative stress disorders by gluthathione and phase II detoxification enzymes” (Brassica Foundation for ChemoProtection Research, priority 2001, dated 2014)
Read-outs that look alike come from different tables or passages of the source.

Assays:
ARPE-19 cells = assay: Oxidant cytotoxicity (MTT viability, median effect analysis) and protection by 24 h sulforaphane pretreatment; format: cell-based, human; conditions: ARPE-19; for Dm of menadione: Example 3; for Dm of menadione / Dm (median effect concentration) of menadione / m (slope of median effect plot) for menadione: menadione 2 h; for Dm (median effect concentration) of tert-butyl hydroperoxide / m (slope of median effect plot) for tert-butyl hydroperoxide: tert-butyl hydroperoxide 16 h
Method: All experiments were performed in 96-well microliter plates. ARPE-19 and HaCaT cells were seeded at 10,000 cells per well and grown for 24 h before addition of sulforaphane, whereas L1210 cells (5,000 cells/well) were not incubated before sulforaphane treatment. Solutions of sulforaphane (5 mM) in dimethyl sulfoxide were diluted with the cognate culture medium to provide final inducer concentrations of 0.16-5.0 μM. The final DMSO concentrations were 0.1% by volume.
Tert-Butyl hydroperoxide (1 M) and 4-hydroxynonenal (25 mM) were dissolved in DMSO and diluted 1000-fold with serum-free medium before addition of serial dilutions to the microtiter plate wells. The final concentrations of DMSO were therefore less than 0.1% (by vol.). Menadione sodium bisulfite (0.5 M) and SIN-1 (0.5 M) were dissolved and added in PBS. ARPE-19 cells were exposed to menadione for 2 h and to tert-butyl hydroperoxide for 16 h, washed with PBS, and cell viability was determined by the MIT test. ARPE-19 cells were exposed to peroxynitrite for 2 h and 4-hydroxynonenal for 4 h, and the cells were then incubated in serum-free media for 22 and 20 h, respectively, washed with PBS, and cell viability was determined. The additional incubation periods were required for peroxynitrite and 4-hydroxynonenal to evoke maximal cytotoxicity.
(§1) Cell viability was determined by spectroscopic measurement of the reduction of MTT (Carmichael, J., DeGraff, W. G., Gazdar, A. F., Minna, J. D. & Mitchell, J. B. (1987) Cancer Res. 47, 936-942). The culture media were discarded after the designated incubation periods, the cells were washed three times with PBS by use of a microtiter plate washer (Ultrawash Plus, Dynex Technologies, Chantilly, Va.). Each well then received 150 μl of an MTT solution (0.5 mg/ml) in serum-free medium. The plates were incubated for 2 h at 37° C., the MTT solution was discarded, 100 μl of DMSO were added to each well, and the plates were shaken at 200 rpm on an orbital shaker for 5 min. The absorbances of the wells were determined at 555 nm with a microtiter plate reader (Spectra Max Plus, Molecular Devices, Sunnyvale, Calif.). The absorbance of reduced MIT was then compared at each inducer and oxidant concentration to that of untreated control cells that received only the vehicle in which sulforaphane (DMSO) and menadione (DMSO or PBS) were dissolved. In each experiment three identical 96-well plates were used and the means of the absorbance values, the standard deviations of these means, and their coefficients of variation were calculated.
Dose-effect analyses were performed according to the Median Effect Equation, by use of a computer program (Chou, T. C. & Hayball, M. (1996) CalcuSyn for Windows 3.1 and 95: multiple dose effect analyzer and manual for IBM-PC, Biosoft, Cambridge, U.K). The equation: fa/fu=[D/Dm]^m, where fa is the fraction of cells affected by the oxidant, fu is the fraction unaffected (i.e., 1-fa), D is the dose of oxidant required to produce the effect fa, Dm is the concentration of oxidant required to produce a 50% effect, i.e., when fa=fu, and the slope m is a measure of the sigmoidicity of the dose-response curve, and is therefore a measure of cooperativity. The results are analyzed by plotting log(fa/fu) with respect to log D of the oxidant. The computer program provides the slope (m) of the curves, and the goodness of fit (r^2) to linearity.

[1] = tested on: Retina Pigment Epithelium Cell; assay: Photooxidative damage by all-trans-retinal and 365 nm light, protection by sulforaphane (cell survival); format: cell-based, human
Method: There is accumulating evidence that chronic exposure to sunlight plays a role in some degenerative diseases, for instance, age-related macular degeneration (AMD). We have, therefore, carried out an experiment of protection of human RPE cells against photooxidative damage mediated by all-trans-retinal, which exists in human retina and is a critical component of the visual cycle.
as §1
To examine the protective effect of sulforaphane against photooxidative damage mediated by all-trans-retinal and light exposure, the cells were treated with 0-100 μM of all-trans-retinal for 2 hours and light exposure at 365 nm for 20 min after incubation with 0-5 μM of sulforaphane for 24 hours.

[2] = after sulforaphane 0.63 μM 24 h
[3] = after sulforaphane 1.25 μM 24 h
[4] = after sulforaphane 2.50 μM 24 h
[5] = after sulforaphane 5.00 μM 24 h

Compound: C[S+]([O-])CCCCN=C=S (stereo not drawn) [Sulforaphane]
- m (slope of median effect plot) for 4-hydroxynonenal (ARPE-19 cells; 4-hydroxynonenal 4 h, after sulforaphane 0.63 μM 24 h): 2.51
- EC50 (ARPE-19 cells; 4-hydroxynonenal 4 h, after sulforaphane 0.63 μM 24 h, read-out: Dm (median effect concentration) of 4-hydroxynonenal): 14.1 µM
- m (slope of median effect plot) for 4-hydroxynonenal (ARPE-19 cells; 4-hydroxynonenal 4 h, after sulforaphane 1.25 μM 24 h): 2.78
- EC50 (ARPE-19 cells; 4-hydroxynonenal 4 h, after sulforaphane 1.25 μM 24 h, read-out: Dm (median effect concentration) of 4-hydroxynonenal): 25.8 µM
- m (slope of median effect plot) for 4-hydroxynonenal (ARPE-19 cells; 4-hydroxynonenal 4 h, after sulforaphane 2.50 μM 24 h): 2.51
- EC50 (ARPE-19 cells; 4-hydroxynonenal 4 h, after sulforaphane 2.50 μM 24 h, read-out: Dm (median effect concentration) of 4-hydroxynonenal): 26.8 µM
- Dm of menadione (ARPE-19 cells; after sulforaphane 0.625 μM 24 h): 69.2 µM
- Dm of menadione (ARPE-19 cells; after sulforaphane 2.5 μM 24 h): 94.5 µM
- degree of protection against different oxidants (ARPE-19 cells; comparable concentrations of sulforaphane): 2- to 3 fold
- Dm (median effect concentration) of menadione (ARPE-19 cells; [2]): 98.6 µM
- m (slope of median effect plot) for menadione (ARPE-19 cells; [2]): 3.69
- Dm (median effect concentration) of menadione (ARPE-19 cells; [3]): 110 µM
- m (slope of median effect plot) for menadione (ARPE-19 cells; [3]): 3.49
- Dm (median effect concentration) of menadione (ARPE-19 cells; after sulforaphane 1.25 μM 24 h, listed as sulforaphane): 109.9 µM
- Dm (median effect concentration) of menadione (ARPE-19 cells; [4]): 123 µM
- m (slope of median effect plot) for menadione (ARPE-19 cells; [4]): 3.58
- Dm (median effect concentration) of menadione (ARPE-19 cells; after sulforaphane 2.50 μM 24 h, listed as sulforaphane): 122.9 µM
- Dm (median effect concentration) of menadione (ARPE-19 cells; [5]): 134 µM
- m (slope of median effect plot) for menadione (ARPE-19 cells; [5]): 3.12
- Dm (median effect concentration) of menadione (ARPE-19 cells; after sulforaphane 5.00 μM 24 h, listed as sulforaphane): 134.2 µM
- m (slope of median effect plot) for peroxynitrite (ARPE-19 cells; peroxynitrite (from SIN-1) 2 h, after sulforaphane 0.63 μM 24 h): 6.30
- EC50 (ARPE-19 cells; peroxynitrite (from SIN-1) 2 h, after sulforaphane 0.63 μM 24 h, read-out: Dm (median effect concentration) of peroxynitrite): 2780 µM
- m (slope of median effect plot) for peroxynitrite (ARPE-19 cells; peroxynitrite (from SIN-1) 2 h, after sulforaphane 1.25 μM 24 h): 6.19
- EC50 (ARPE-19 cells; peroxynitrite (from SIN-1) 2 h, after sulforaphane 1.25 μM 24 h, read-out: Dm (median effect concentration) of peroxynitrite): 2820 µM
- m (slope of median effect plot) for peroxynitrite (ARPE-19 cells; peroxynitrite (from SIN-1) 2 h, after sulforaphane 2.50 μM 24 h): 6.62
- EC50 (ARPE-19 cells; peroxynitrite (from SIN-1) 2 h, after sulforaphane 2.50 μM 24 h, read-out: Dm (median effect concentration) of peroxynitrite): 2890 µM
- time for which protection against menadione toxicity is maintained or exceeded after 24-h induction (ARPE-19 cells; sulforaphane 0.625 and 2.5 μM 24 h, then serum-free culture): at least 3 days
- Dm (median effect concentration) of tert-butyl hydroperoxide (ARPE-19 cells; [2]): 140 µM
- m (slope of median effect plot) for tert-butyl hydroperoxide (ARPE-19 cells; [2]): 2.17
- Dm (median effect concentration) of tert-butyl hydroperoxide (ARPE-19 cells; [3]): 163 µM
- m (slope of median effect plot) for tert-butyl hydroperoxide (ARPE-19 cells; [3]): 1.79
- Dm (median effect concentration) of tert-butyl hydroperoxide (ARPE-19 cells; [4]): 165 µM
- m (slope of median effect plot) for tert-butyl hydroperoxide (ARPE-19 cells; [4]): 1.26
- Survival ([1]; 365 nm light, all-trans-retinal 0 μM, sulforaphane 1.25 μM 24 h): 100.0%
- Survival ([1]; 365 nm light, all-trans-retinal 0 μM, sulforaphane 2.50 μM 24 h): 100.6%
- Survival ([1]; 365 nm light, all-trans-retinal 0 μM, sulforaphane 5.00 μM 24 h): 100.4%
- Survival ([1]; 365 nm light, all-trans-retinal 12.5 μM, sulforaphane 1.25 μM 24 h): 95.4%
- Survival ([1]; 365 nm light, all-trans-retinal 12.5 μM, sulforaphane 2.50 μM 24 h): 96.5%
- Survival ([1]; 365 nm light, all-trans-retinal 12.5 μM, sulforaphane 5.00 μM 24 h): 103.4%
- Survival ([1]; 365 nm light, all-trans-retinal 25 μM, sulforaphane 1.25 μM 24 h): 54.4%
- Survival ([1]; 365 nm light, all-trans-retinal 25 μM, sulforaphane 2.50 μM 24 h): 63.8%
- Survival ([1]; 365 nm light, all-trans-retinal 25 μM, sulforaphane 5.00 μM 24 h): 72.2%
- Survival ([1]; 365 nm light, all-trans-retinal 50 μM, sulforaphane 1.25 μM 24 h): 11.7%
- Survival ([1]; 365 nm light, all-trans-retinal 50 μM, sulforaphane 2.50 μM 24 h): 15.2%
- Survival ([1]; 365 nm light, all-trans-retinal 50 μM, sulforaphane 5.00 μM 24 h): 27.4%
- Survival ([1]; 365 nm light, all-trans-retinal 100 μM, sulforaphane 1.25 μM 24 h): 3.4%
- Survival ([1]; 365 nm light, all-trans-retinal 100 μM, sulforaphane 2.50 μM 24 h): 5.2%
- Survival ([1]; 365 nm light, all-trans-retinal 100 μM, sulforaphane 5.00 μM 24 h): 8.2%
- Survival ([1]; 365 nm light, column Control, sulforaphane 1.25 μM 24 h): 100.7%
- Survival ([1]; 365 nm light, column Control, sulforaphane 2.50 μM 24 h): 97.4%
- Survival ([1]; 365 nm light, column Control, sulforaphane 5.00 μM 24 h): 101.4%
- Survival ([1]; in dark, all-trans-retinal 0 μM, sulforaphane 1.25 μM 24 h): 96.6%
- Survival ([1]; in dark, all-trans-retinal 0 μM, sulforaphane 2.50 μM 24 h): 99.4%
- Survival ([1]; in dark, all-trans-retinal 0 μM, sulforaphane 5.00 μM 24 h): 103.1%
- Survival ([1]; in dark, all-trans-retinal 12.5 μM, sulforaphane 1.25 μM 24 h): 96.3%
- Survival ([1]; in dark, all-trans-retinal 12.5 μM, sulforaphane 2.50 μM 24 h): 101.5%
- Survival ([1]; in dark, all-trans-retinal 12.5 μM, sulforaphane 5.00 μM 24 h): 104.6%
- Survival ([1]; in dark, all-trans-retinal 25 μM, sulforaphane 1.25 μM 24 h): 97.7%
- Survival ([1]; in dark, all-trans-retinal 25 μM, sulforaphane 2.50 μM 24 h): 98.3%
- Survival ([1]; in dark, all-trans-retinal 25 μM, sulforaphane 5.00 μM 24 h): 104.8%
- Survival ([1]; in dark, all-trans-retinal 50 μM, sulforaphane 1.25 μM 24 h): 98.4%
- Survival ([1]; in dark, all-trans-retinal 50 μM, sulforaphane 2.50 μM 24 h): 99.9%
- Survival ([1]; in dark, all-trans-retinal 50 μM, sulforaphane 5.00 μM 24 h): 106.8%
- Survival ([1]; in dark, all-trans-retinal 100 μM, sulforaphane 1.25 μM 24 h): 74.7%
- Survival ([1]; in dark, all-trans-retinal 100 μM, sulforaphane 2.50 μM 24 h): 75.6%
- Survival ([1]; in dark, all-trans-retinal 100 μM, sulforaphane 5.00 μM 24 h): 84.6%
- Survival ([1]; in dark, column Control, sulforaphane 1.25 μM 24 h): 96.7%
- Survival ([1]; in dark, column Control, sulforaphane 2.50 μM 24 h): 99.5%
- Survival ([1]; in dark, column Control, sulforaphane 5.00 μM 24 h): 105.6%
